Experimental data as given in patent publication US4120894A, “Sulfo-m-phenylenebis(sulfonylimino)diisophthalic acid salts” (American Cyanamid Company, priority 1977, dated 1978).
Where a name gives a salt, the structure may show the parent alone.

Key:
[1] = system: complement system; details: literature report; cited from earlier work
[2] = system: hereditary angioneurotic edema; details: literature report; cited from earlier work
[3] = system: human serum complement; details: in vitro and in vivo, judged by reduction in total hemolytic complement activity; cited from earlier work
[4] = system: activated human C1; experiment: Test, Code 026 (C1 inhibitor); format: biochemical; details: activity in wells, two-fold serial dilution assay; higher well number indicates higher activity
From the text: (§1) An active inhibitor protects C2 C1 and C4; (ii) Test, Code 035 (C3-C9 inhibitor) -- This test determines the ability of thee late components of human complement (C3-C9) to lyse EAC 142 in the presence of appropriate dilutions of the test compound. An active inhibitor protects EAC 142 from lysis by human C3-C9; (iii) Test, Code 036 (C-Shunt inhibitor) -- In this test human erythrocytes rendered fragile are lysed in autologous serum via the shunt pathway activated by cobra venom factor in the present of appropriate dilutions of the test compound. Inhibition of the shunt pathway results in failure of lysis; (iv) Forssman Vasculitis Test -- Here, the well known complement dependent lesion, Forssman vasculitis, is produced in guinea pigs by intradermal injection of rabbit anti-Forssman antiserum. […]

[5] = system: shunt pathway; experiment: Test, Code 036 (C-Shunt inhibitor), lysis of human erythrocytes in autologous serum via shunt pathway activated by cobra venom factor; format: cell-based; details: activity in wells, two-fold serial dilution assay; higher well number indicates higher activity
From the text: as §1

[6] = system: whole complement; experiment: Complement Level Reduction Test (serum of dosed guinea pigs, capillary tube assay); format: in vivo; details: 200 mg/kg i.p.

| Molecule | anticomplementary effect / complement inhibition [1] | treatment of hereditary angioneurotic edema [2] | other results |
| --- | --- | --- | --- |
| Cc1ccc(C(=O)Nc2ccc(S(=O)(=O)O)c3cc(S(=O)(=O)O)cc(S(=O)(=O)O)c23)cc1NC(=O)c1cccc(NC(=O)Nc2cccc(C(=O)Nc3cc(C(=O)Nc4ccc(S(=O)(=O)O)c5cc(S(=O)(=O)O)cc(S(=O)(=O)O)c45)ccc3C)c2)c1 [Suramin] | competitive inhibitor of the complement system | used with success |  |
| Nc1ccc2cc(S(=O)(=O)O)cc(O)c2c1N=Nc1ccc(NC(=O)Nc2ccc(N=Nc3c(N)ccc4cc(S(=O)(=O)O)cc(O)c34)c(S(=O)(=O)O)c2)cc1S(=O)(=O)O [chlorazol fast pink, 3,3'-ureylenebis-[6-(2-amino-8-hydroxy-6-sulfo-1-naphthylazo)]benzenesulfonic acid, tetrasodium salt] | anticomplementary effect |  |  |
| NCCCCCC(=O)O [epsilon-aminocaproic acid] |  | used with success |  |
| NC[C@H]1CC[C@H](C(=O)O)CC1 [tranexamic acid] |  | used with success |  |
| pentosan-poly-sulfoester |  |  | anticomplementary activity on human serum [3]: anticomplementary activity on human serum both in vitro and in vivo |
| heparin | anticomplementary effect |  |  |
| O=C(O)c1cc(NS(=O)(=O)c2cc(S(=O)(=O)O)cc(S(=O)(=O)Nc3cc(C(=O)O)cc(C(=O)O)c3)c2)cc(C(=O)O)c1 [5,5'[5-Sulfo-m-phenylenebis(sulfonylimino)]diisophathalic acid sodium salt, compound with ethanol (1:1)] |  |  | C1 026 Wells [4]: +4 Wells; Shunt Inhibition 036 Wells [5]: +1 Wells; In Vivo Activity (Guinea Pig) % Inhibition, Intraperitoneal, 30 minutes ([6]; 30 min): -44%; In Vivo Activity (Guinea Pig) % Inhibition, Intraperitoneal, 60 minutes ([6]; 60 min): -42%; In Vivo Activity (Guinea Pig) % Inhibition, Intraperitoneal, 120 minutes ([6]; 120 min): -49% |
